# Experimental data published in the OPERA property sets (Mansouri et al. 2018).
# Where a SMILES comes first, the peptide text is derived from it. [ ]: non-standard residue; d: D form. ξ: configuration not given here. ξY = NC(Cc1ccc(O)cc1)C(=O)O
smiles,measurement,value
Cc1ccc2c(c1)COP(=O)(OCC1C=CC(n3cc(C)c(=O)[nH]c3=O)O1)O2 (stereo unspecified),logP,0.73
COc1ccc(CCNCC(O)COc2ccc(CCc3nc(Br)c[nH]3)cc2)cc1OC (stereo unspecified),logP,3
C[C@]12CCC(=O)C=C1[C@@H]1C[C@@H]1[C@@H]1[C@@H]2CC[C@@]2(C)[C@H]1CC[C@@]21CCC(=O)O1,logP,3.08
NC(=O)C(CCN1CC2CCC(CC2)C1)(c1ccccc1)c1ccccn1 (stereo unspecified),logP,2.72
C[N+](C)([O-])CCCC(c1ccccc1)c1ccccc1,logP,1.45
CCC(C)C(N)C(=O)N1CCCC1C(=O)O (stereo not drawn) (H-Ile-Pro-OH; configuration not given here),logP,-1.79
CCC(C)NCc1cccc(S(=O)(=O)c2csc(S(N)(=O)=O)c2)c1 (stereo unspecified),logP,2.13
CC(C)NC(=O)N1C(=O)N(C)CC1O (stereo unspecified),logP,0.96
NC(Cc1ccc(O)cc1)C(=O)NCC(=O)NCC(=O)O (stereo not drawn) (H-[ξY]-Gly-Gly-OH),logP,-3.51
COC(=O)c1c(Oc2nc(OC)cc(OC)n2)cccc1C(C)=NOCC(F)(F)F,logP,3.39
Cc1ccc(C(=O)OCCCn2ccc(=O)c(O)c2C)cn1,logP,0.28
CCN(CC)CCSC(=NO)c1noc(-c2ccccc2)n1,logP,3.05
CSCCC(N)C(=O)NC(Cc1ccc(O)cc1)C(=O)O (stereo not drawn) (H-Met-Tyr-OH; configuration not given here),logP,-2.03
COc1ccc(C2Cc3c(cccc3C(F)(F)F)N(CCN(C)C)C(=O)C2O)cc1 (stereo unspecified),logP,4.1
Clc1cc(Oc2ccccc2)c(Cl)c(Cl)c1Cl,logP,6.31
COc1ccc(C2Cc3c(cccc3C(F)(F)F)N(CCN(C)C)C(=O)C2OC(C)=O)cc1 (stereo unspecified),logP,4.9
CCCNC(=O)Cn1cccc(O)c1=O,logP,-0.24
Cc1cc2c(ccc3c(C)c(C)c(=O)oc32)o1,logP,3.27
Cc1ccc(Nc2ccncc2S(=O)(=O)NC(=NC#N)NC(C)C)cc1,logP,1.91
CC(C)CC(=O)OCC(=O)C1(O)C(C)CC2C3CCC4=CC(=O)C=CC4(C)C3(F)C(O)CC21C (stereo unspecified),logP,3.8
CC1(C(=O)O)CSC(c2ccc(O)cc2O)=N1 (stereo unspecified),logP,1.3
S=c1nccc[nH]1,logP,-1.11
COc1ccc(C2=NC(C(=O)O)CS2)c(O)c1 (stereo unspecified),logP,1.5
COC(=O)c1ccc(Cl)cc1[N+](=O)[O-],logP,2.35
CCNC(=O)NS(=O)(=O)c1cnccc1Nc1ccccc1C,logP,3.06
O=C1N=C(N2CCOCC2)CN1c1ccccc1,logP,0.6
c1ccc2c(c1)Cc1ncccc1-2,logP,2.59
CCC1(C(=O)NC(C)c2ccc(Cl)cc2)C(C)C1(Cl)Cl (stereo unspecified),logP,4.23
O=C(O)c1ccccc1C(c1ccc(O)cc1)c1ccc(O)cc1,logP,2.61
CCCCNC(=N)NC(=O)c1ccc(Cl)cc1,logP,3.08
CNC1=NS(=O)N=C1NCCSCc1ccc(CN(C)C)o1 (stereo unspecified),logP,0.89
N#Cc1cccc(Cn2ccnc2)c1,logP,1.01
COc1cc(NS(C)(=O)=O)ccc1-c1cn2cccnc2n1,logP,0.72
O=C1N=C(N2CCOCC2)CN1Cc1cccc(Cl)c1,logP,1.3
COc1ccc(C2Cc3c(OC)cccc3N(CCN(C)C)C(=O)C2OC(C)=O)cc1 (stereo unspecified),logP,3.9
NS(=O)(=O)c1ncncc1-c1ccccc1,logP,0.5
Cc1cccc(OCC2CN=C(N)O2)c1 (stereo unspecified),logP,1.75
O=C1C(O)N=C(c2ccccc2)c2cc([N+](=O)[O-])ccc2N1CCO (stereo unspecified),logP,0.72
O=C(O)CCCCON=C(c1cncnc1)c1cccc(C(F)(F)F)c1,logP,3.26
NC1=NCC(COc2ccccc2Cc2ccccc2)O1 (stereo unspecified),logP,3.05
O=C1c2ccccc2-c2nncc(-c3ccccc3)c21,logP,2.8
CC(Nc1[nH]cnc2ncnc1-2)c1ccccc1 (stereo unspecified),logP,2.58
COC1C(O)CC(=O)OC(C)CC=CC=CC(=O)C(C)CC(CC=O)C1OC1OC(C)C(OC2CC(C)(O)C(OC(=O)CC(C)C)C(C)O2)C(N(C)C)C1O (stereo unspecified),logP,1.86
Brc1ccc2ccc3cccc4ccc1c2c34,logP,5.81
CC(=O)c1ccc(Cl)cc1O,logP,2.97
CSC(=S)N1CCCCC1,logP,1.7
NC(Cc1ccccc1)C(=O)NC(Cc1ccccc1)C(=O)NC(Cc1ccccc1)C(=O)O (stereo not drawn) (H-Phe-Phe-Phe-OH; configuration not given here),logP,-0.02
NC(=S)NN=C(c1cccc([N+](=O)[O-])c1)c1ccccn1,logP,1.9
Clc1ccc(N2CCN(CCn3nc4ccccc4n3)CC2)cc1,logP,4.05
Cc1cnc(C(=O)OCCCn2ccc(=O)c(O)c2C)cn1,logP,-0.49
CC1CCC2OC2(C)C12CCC(C(C)(C)O)C2 (stereo unspecified),logP,2.7
COCCNC(=O)Cn1cnc([N+](=O)[O-])n1,logP,-0.85
CCCN(CCc1cccs1)C1CCc2c(O)cccc2C1 (stereo unspecified),logP,4.7
COC(=O)C(=Cc1ccccc1)S(=O)(=O)c1ccc([N+](=O)[O-])cc1,logP,2.9
On1nnc2ccccc21,logP,0.69
COc1cccc(C(O)C(C(=O)O)c2ccc(-c3ccccc3)cc2)c1 (stereo unspecified),logP,3.53
Clc1cc(Cl)c2c(c1)Oc1c(ccc(Cl)c1Cl)O2,logP,6.43
Nc1nc(N)c2c(S(=O)(=O)c3ccccc3)cccc2n1,logP,2.14
O=C1C=C(N2CCCCC2)C(=O)N1c1ccc(Cl)cc1,logP,3.4
O=C1c2ccccc2-c2nnc(-c3ccc(O)cc3)cc21,logP,2.88
CC(C)CC(N)C(=O)NC(C(=O)NCC(=O)NC(C(=O)NC(Cc1ccccc1)C(=O)O)C(C)O)C(C)C (stereo unspecified) (H-LVGTF-OH; configuration not given here),logP,-1.18
CCCC(=NOCC)C1=C(O)CC2(CCCC2)OC1=O,logP,3.22
S=C=NCCCCCCCCCCc1ccccc1,logP,6.82
Oc1ccc(CNc2ncnc3nc[nH]c23)cc1,logP,1.55
Cc1cc(C)cc(Cc2c[nH]cn2)c1,logP,2.52
CCCCCNc1ncnc2c1ncn2C1OC(CO)C(O)C1O (stereo unspecified),logP,1.67
O=c1cc(-c2cccc(Cl)c2)oc2ccccc12,logP,3.91
CC(C)OC(=O)C(=Cc1ccccc1)S(=O)(=O)c1ccc(Cl)cc1,logP,4.18
O=C1CCCc2nnc(-c3ccccc3)cc21,logP,2.05
Clc1cc2c(cc1Cl)Oc1c(Cl)c(Cl)cc(Cl)c1O2,logP,6.2
CCCCCCNc1ncnc2c1ncn2C1OC(CO)C(O)C1O (stereo unspecified),logP,2.24
CC(C)CC(NC(=O)C(N)Cc1c[nH]c2ccccc12)C(=O)NC(Cc1ccccc1)C(=O)NC(C)C(=O)NC(C)C(=O)O (stereo unspecified) (H-WLFAA-OH; configuration not given here),logP,-0.32
CCC(C)C(NC(=O)CNC(=O)C1CCCN1C(=O)C(N)Cc1ccc(O)cc1)C(=O)O (stereo unspecified) (H-YPGI-OH; configuration not given here),logP,-1.65
c1[nH]nc2c1CCC1c3n[nH]cc3CCC21 (stereo unspecified),logP,0.3
CC1CCN(CC2CN=C(N)O2)CC1 (stereo unspecified),logP,0.91
N=C(N)Nc1nc(-c2ccc(N)cc2)cs1,logP,1.08
Cc1oc2c(C)cc3c(C)cc(=O)[nH]c3c2c1C,logP,3.5
c1ccc(N2CCN(CCn3nnc4ccccc43)CC2)cc1,logP,2.74
COC(=O)C(Cc1ccccc1)(Cc1ccccc1)S(=O)(=O)c1ccc([N+](=O)[O-])cc1,logP,4.46
Nc1nc(N)c2c(Br)cccc2n1,logP,1.91
CCOc1cc2ncnc(Nc3cccc(Br)c3)c2cc1OCC,logP,4.4
O=C(O)CCCCCON=C(c1ccccc1)c1cncnc1,logP,2.91
C1CCC2OC2C1 (stereo unspecified),logP,1.26
Cc1cc(C(=O)O)ccc1[N+](=O)[O-],logP,2.42
O=c1ccc2cc3ccoc3cc2s1,logP,2.61
CC(C(=O)O)c1ccc(OCc2ccccc2)c(F)c1 (stereo unspecified),logP,3.61
O=C(O)c1cc(O)c2ccc(Cl)cc2n1,logP,1.05
CCC(C)C(NC(=O)C(N)CC(C)C)C(=O)NC(C(=O)O)C(C)O (stereo not drawn) (H-Leu-Ile-Thr-OH; configuration not given here),logP,-2.14
N#Cc1cccc(Cc2ncccn2)c1,logP,1.46
COc1cc(OC)c2c(c1)OC(c1ccc(OC)c(OC)c1)C(O)C2 (stereo unspecified),logP,3.1
COC(=O)c1[nH]cc(-c2ccc(Cl)cc2)c1N1CCOCC1,logP,3.5
NC1=NCC(CN2CCC(c3ccccc3)CC2)O1 (stereo unspecified),logP,1.96
CC(C)=CC1C(C(=O)OCc2cccc(S(C)(=O)=O)c2)C1(C)C (stereo unspecified),logP,3.83
CC(NCC(O)CON=C(C1CC1)C1CC1)c1ccccc1 (stereo unspecified),logP,2.32
CCCCNC(=O)Cn1cccc(O)c1=O,logP,0.33
CC(C)c1cccc(C(C)C)c1NC(=O)CC(=O)c1ccccc1,logP,2.87
O=[N+]([O-])c1ccc(CSc2ncnc3c2ncn3C2OC(CO)C(O)C2O)cc1 (stereo unspecified),logP,0.54
CC(C)(C)NCc1ccc(S(=O)(=O)c2csc(S(N)(=O)=O)c2)cc1,logP,1.76
CNc1ccncc1S(=O)(=O)NC(=NC#N)NC(C)C,logP,-0.65
CN(c1nc2ccccc2s1)C1CCN(CCCCOc2ccc(F)cc2)CC1,logP,5.37
Cc1oc2nc3oc(=O)ccc3c(C)c2c1C,logP,2.19
Cc1coc2c(C)c3oc(=O)cc(C)c3cc12,logP,3.25
CCCCNC1CC(OC2CC(O)(C(=O)CO)Cc3c(O)c4c(c(O)c32)C(=O)c2c(OC)cccc2C4=O)OC(C)C1O (stereo unspecified),logP,2.12
NS(=O)(=O)c1ccc(Cn2cnc3ccccc32)cc1,logP,1.04
O=C1C=C(N2CCCCC2)CN1c1ccc(Cl)cc1,logP,3
O=c1cc(CBr)occ1O,logP,0.61
O=C(NCCNCC(O)COc1ccc(CCOCCOCC2CC2)cc1)N1CCC(O)CC1 (stereo unspecified),logP,1
Cc1nccc2c1[nH]c1cc(O)ccc12,logP,2.84
Cc1nc2c3c(c(C(=O)N(C)C)cn2c1C(=O)N(C)C)CCC(c1ccccc1)O3 (stereo unspecified),logP,1.89
OCC1OC(n2cnc3c(NCCc4ccccc4)ncnc32)C(O)C1O (stereo unspecified),logP,1.55
Brc1ccc(Br)c(N=C2NCCN2)c1,logP,2.71
Cc1nn(-c2cc(CC(Cl)C(=O)O)c(Cl)cc2F)c(=O)n1C(F)F (stereo unspecified),logP,3.36
CC(=O)NC1=C(Cl)C(=O)c2ccccc2C1=O,logP,1.42
COC1=CC(=O)c2c(c(COC(N)=O)c3n2CCC3OC(C)=O)C1=O (stereo unspecified),logP,0.72
CCCOc1cccc(CNc2[nH]cnc3ncnc2-3)c1,logP,3.12
Cc1c(C)c2ccc3occc3c2oc1=O,logP,2.9
CON(C)C(=O)Nc1ccc(OC(C)CC2CCCCC2)cc1 (stereo unspecified),logP,4.51
CCOP(=O)(Oc1ccc(C#N)cc1)c1ccccc1 (stereo unspecified),logP,2.44
C=C(C)C(=O)OCC(COC(=O)C(=C)C)COC(=O)C(=C)C,logP,3.53
CCOc1ccccc1NC(=O)OC1C(CN(CC)CC)C2CCC1(C)C2(C)C (stereo unspecified),logP,5.8
CON=C(C(=O)NC1C(=O)N2C(C(C)OC(=O)OC3CCCCC3)=CCSC12)c1csc(N)n1 (stereo unspecified),logP,2.52
